“Also recorded” adds a separate entry of the source. Square brackets hold non-standard residues; d marks the D form. Ends that are not written are not given here. * marks the point of attachment. S3 = D-Pra clicked to acylated azidolysine-PEG2-biotin, with 5-azido-pentanoic acid; 5FAM = O=C1OC2(c3ccc(O)cc3Oc3cc(O)ccc32)c2ccc(C(=O)*)cc21; 5‑azidopentanoyl = [N-]=[N+]=NCCCCC(=O)*; Lys(N3) = [N-]=[N+]=NCCCC[C@H](N)C(=O)O; Peg2 = PEG spacer (Fmoc-NH-(PEG)2-OH); dPra = C#CC[C@@H](N)C(=O)O; Ahx = NCCCCCC(=O)O
Key:
SKOV3 cells = experiment: XTT cell viability assay; type: cell-based; details: 50 μM
Experimental: (§1) The XTT assay kit was purchased from Cell Signaling Technology (#9095) and used according to manufacturer protocol. Briefly, 1×10^4 cells were seeded in a 96-well plate. The following day, cells were serum starved and treated with capture agent. Following treatment, the XTT tetrazolium salt was added to the media and after 1 hour the absorbance at 450 nm was measured in a 96-well plate reader.

OVCAR3 cells = experiment: XTT cell viability assay; type: cell-based; details: 50 μM
Experimental: as §1

Akt2 = Akt2 (Homo sapiens, UniProt P31751); experiment: Non-radioactive kinase assay, phosphorylation of GSK-3α/β fusion protein; type: biochemical; set-up: purchased Abcam; details: relative to DMSO control
Experimental: The non-radioactive kinase assay kit for Akt2 was purchased from Cell Signaling. Ligand solutions were made in DMSO. Kinase reactions were set up in 1× kinase buffer (25 mM trisHCl (pH 7.5), 10 mM MgCl2, 0.01% Triton-X, 1× Complete protease inhibitor (Roche), 1× Phosstop phosphatase inhibitor (Roche)), each 25 μL reaction mixture containing 400 ng Akt2, 400 ng GST-GSK-3α/β fusion protein, […] and 0.5 μL of peptide solutions in DMSO or DMSO only. Reactions were allowed to proceed for 30 minutes at 30° C. A reaction mixture was also prepared using a 1:2.5 dilution of anti pS473 antibody (Cell Signaling) in the kinase buffer instead of the peptide ligand or DMSO. The reactions were quenched by adding 12.5 μL of 2×SDS sample loading buffer and heating at 95° C. for five minutes. 10 μL from each sample was loaded on an any kD SDS gel (BioRad) and run for an hour at 110 volts. Following semidry transfer of the gel to a nitrocellulose membrane, the membrane was blocked in 5% nonfat milk/TBST for an hour at 4° C., and treated overnight at 4° C. with a 1:200 dilution of Phospho GSK-3α/β Ser (21/9) rabbit antibody (Cell Signaling) in 0.5% milk/TBST. Following washes, the membrane was treated with a 1:2000 dilution of mouse anti-rabbit-HRP antibody for an hour at 4° C. After four five minute washes with TBST, and one five minute wash with TBS, the membrane was treated with West Dura ECL substrate (Thermo Scientific) and imaged on film.

[1] = system: SKOV3 ovarian cancer cells; experiment: Western blots of treated SKOV3 cells (Akt signaling pathway); type: cell-based
Experimental: Western blots were performed according to standard protocols. Briefly, cells were lysed with cell lysis buffer (Cell Signaling Technology) containing protease and phosphatase inhibitors (Cell Signaling Technology). Cell lysates were quantified with a Bradford protein assay (Thermo Scientific) and prepared for gel electrophoresis in Laemmli sample buffer and reducing agent. 20 μg of cell lysate were added to precast polyacrylamide gels (Bio-Rad) and proteins were separated by electrophoresis followed by transfer to PVDF membrane. Membranes were then blocked and probed with primary antibodies followed by horseradish peroxidase-conjugated secondary antibodies. The following antibodies were used according to manufacturer protocol: p-GSK3β (Cell Signaling, 9323), GSK3 β (Cell Signaling, 12456), AKT (Cell Signaling, 4691), p-AKT (S473) (Cell Signaling, 4060), Actin (Cell Signaling, 8456), HRP-linked Anti-rabbit IgG (Cell Signaling, 7074). The bands were visualized by chemiluminescence (Thermo Scientific).

Chain of Akt2 (P31751 whole entry, the tested form may be a part): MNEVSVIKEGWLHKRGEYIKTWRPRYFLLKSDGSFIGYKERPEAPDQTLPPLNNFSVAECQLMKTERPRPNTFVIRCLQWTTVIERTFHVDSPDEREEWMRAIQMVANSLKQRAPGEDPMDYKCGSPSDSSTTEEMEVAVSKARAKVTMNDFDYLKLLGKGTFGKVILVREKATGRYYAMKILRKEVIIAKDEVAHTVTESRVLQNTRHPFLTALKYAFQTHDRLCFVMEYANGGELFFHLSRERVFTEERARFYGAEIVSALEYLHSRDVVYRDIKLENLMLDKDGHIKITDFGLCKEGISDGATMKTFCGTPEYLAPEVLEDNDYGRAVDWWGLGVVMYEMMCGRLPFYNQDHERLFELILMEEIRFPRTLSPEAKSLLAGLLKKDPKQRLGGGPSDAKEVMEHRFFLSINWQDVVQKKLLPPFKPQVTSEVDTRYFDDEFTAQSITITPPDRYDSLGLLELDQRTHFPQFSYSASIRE

Substance | cell viability (XTT) (SKOV3 cells) | cell viability (XTT) (OVCAR3 cells) | influence on Akt2 kinase activity (p-GSK-3α/β level) (Akt2) | p-Akt level ([1]; 50 μM, time course) | p-GSK-3β level ([1]; 50 μM, time course) | phospho-GSK-3β level after pretreatment and EGF stimulation ([1]; 50 μM, 1, 6 and 12 hours pretreatment, then EGF 10 minutes) | phospho-GSK-3β level after pretreatment and EGF stimulation ([1]; 50 μM, 24 hours pretreatment, then EGF)
tri_a: Akt-activating N-terminal triligand, conjugated to HIV TAT peptide via PEG spacers for cell assays (FIG. 28, 33A) (peptide 1 WKVKL; peptide 2 HNGYF; peptide 3 XYYRFG; peptide 4 GRKKRRQRRRPPQQ; not fully specified; D-residues; non-natural residues) | significant increase in viability after 1 day treatment followed by a decline; also recorded: initial spike in cell viability after 24 hours, followed by a linear decrease with time | significant increase in viability after 1 day treatment followed by a decline; also recorded: sharp increase after 24 hours is followed by a steady decrease before finally stabilizing | activate | initially increases and then steadily decreases over time | highest level of GSK3B phosphorylation is seen after 1 hour treatment; also recorded: clear increase in the p-GSK-3β level relative to the untreated and EGF-stimulated cells |  | 
tri_i: Akt-inhibiting C-terminal triligand, TAT-modified, with fluorescein label (FIG. 31, 35a) (peptide 1 Ac-[Lys(N3)][dH][dD]GG[dF]; peptide 2 S3-[dW][dK][dV][dK]; peptide 3 {5FAM-Ahx-Cys-Peg2}-[dH][dN]G[dY][dF][dPra]; peptide 4 {5‑azidopentanoyl-Peg2}-GRKKRRQRRRPPQQ-NH2; not fully specified (C-terminus); also: arms joined by triazoles, fluorescein label (Peg2-Cys-Ahx-5-carboxyfluorescein) coupled via DBCO-maleimide to TAT) | significant decrease in viability after 1 day treatment; also recorded: initial drop in cell viability and remain consistently lower than untreated cells for 5 days | significant decrease in viability after 1 day treatment; also recorded: initial drop in cell viability after 24 hours, followed by an increase before finally decreasing again | inhibit |  |  | less phospho-GSK-3β than EGF stimulation alone; also recorded: less phospho-GSK3-β than untreated cells stimulated with EGF alone | dramatic increase in levels of phospho-GSK3-β

— patent US11371994B2, “Phosphorylated Akt-specific capture agents, compositions, and methods of using and making” (California Institute of Technology, priority 2013, dated 2022)
